In general, stoichiometry N refers to a count of units in the complex or per binding partner.

Assay [1] has as its target T1, Ls-MalY (Lactobacillaceae, UniProt A0A223K4L6).
T1 construct: full length in pET-22b(+), C-terminal hexa-histidine tag, E. coli BL21(DE3), subunit ~46 kDa with tag, 281 kDa by gel filtration, homohexamer
T1 sequence (A0A223K4L6 1-391): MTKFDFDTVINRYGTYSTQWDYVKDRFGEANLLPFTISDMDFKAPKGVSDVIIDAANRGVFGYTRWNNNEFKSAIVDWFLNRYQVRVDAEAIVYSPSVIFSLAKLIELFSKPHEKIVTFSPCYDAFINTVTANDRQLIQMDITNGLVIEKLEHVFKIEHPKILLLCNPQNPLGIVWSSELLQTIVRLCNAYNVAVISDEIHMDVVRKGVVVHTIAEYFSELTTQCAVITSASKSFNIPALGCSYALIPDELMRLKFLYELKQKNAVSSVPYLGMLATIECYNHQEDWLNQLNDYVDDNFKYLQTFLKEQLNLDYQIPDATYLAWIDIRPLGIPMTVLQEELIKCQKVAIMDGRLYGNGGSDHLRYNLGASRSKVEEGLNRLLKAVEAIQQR
Put plainly: UV-vis absorption spectrum ([…] nm peak), hydroxylamine treatment. Type of assay: binding. The following applies: 20 mM potassium phosphate pH 7.5; as purified; covalent, K233.

For assay [2], the target named is T2, Ls-MalY (Lactobacillaceae, UniProt A0A223K4L6, Y123A).
T2 construct: full length in pET-22b(+), C-terminal hexa-histidine tag, E. coli BL21(DE3), subunit ~46 kDa with tag, 281 kDa by gel filtration, homohexamer
T2 sequence (A0A223K4L6 1-391 Y123A): T1 sequence (A0A223K4L6 1-391) with Y123A
The assay is described as follows: UV-vis absorption spectrum, hydroxylamine treatment. The class given is binding. The following applies: 20 mM potassium phosphate pH 7.5; as purified.

Assay [3] addresses MalY from Lactobacillus sakei LT-13 (wild type) (Lactobacillus sakei LT-13). The assay is described as follows: SEC; Superdex 200 Increase 10/300 GL, 20 mM potassium phosphate pH 7.5 with 0.15 M KCl, 0.75 mL/min; molecular weight estimated against markers (thyroglobulin, apoferritin, β-amylase, BSA, carbonic anhydrase).

Positions count from the first letter of the chain named.

Take `Cc1ncc(COP(=O)(O)O)c(C=O)c1O` [PLP]: on Ls-MalY [1], the “UV-vis absorption spectrum (420 nm peak), hydroxylamine treatment” value was “the absorption peak was abolished by treatment with hydroxylamine (Figure 3A), suggesting that Ls-MalY bound PLP”. Moreover, at Ls-MalY [2], the “UV-vis absorption spectrum, hydroxylamine treatment” value is recorded as “These spectral features suggest that the Y123A mutant bound PLP”.
Regarding “MalY from Lactobacillus sakei LT-13 (wild type) (enzyme)”, in assay [3], the stoichiometry N is 6.

The values above are taken from PMC5845896, “A Novel Bifunctional Amino Acid Racemase With Multiple Substrate Specificity, MalY From Lactobacillus sakei LT-13: Genome-Based Identification and Enzymological Characterization” (Frontiers in Microbiology, 2018).
